Measured values published in patent US10689362B2, “Quinoxaline compounds as type III receptor tyrosine kinase inhibitors” (Development Center for Biotechnology, priority 2016, dated 2020).

Assays:
PDGFRβ kinase = PDGFRβ kinase (Homo sapiens (Human), UniProt P09619); test: PDGFRβ kinase assay (radiometric); type: biochemical
Outline: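 Radiometric assay: recombinant PDGFRβ with poly(Glu4:Tyr1) in MOPS pH 7.0 buffer containing Mg2+/Mn2+, 10 μM ATP plus [33P]-ATP, and compound at 4% DMSO final. Incubated 60 min at 30° C, stopped with phosphoric acid, filter-captured and scintillation-counted. IC50 from curve fitting.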

CSF-1R kinase = CSF-1R kinase (Homo sapiens (Human), UniProt P07333); test: CSF-1R kinase assay (AlphaScreen); type: biochemical; details: class symbol
Chain of CSF-1R kinase (P07333 20-972): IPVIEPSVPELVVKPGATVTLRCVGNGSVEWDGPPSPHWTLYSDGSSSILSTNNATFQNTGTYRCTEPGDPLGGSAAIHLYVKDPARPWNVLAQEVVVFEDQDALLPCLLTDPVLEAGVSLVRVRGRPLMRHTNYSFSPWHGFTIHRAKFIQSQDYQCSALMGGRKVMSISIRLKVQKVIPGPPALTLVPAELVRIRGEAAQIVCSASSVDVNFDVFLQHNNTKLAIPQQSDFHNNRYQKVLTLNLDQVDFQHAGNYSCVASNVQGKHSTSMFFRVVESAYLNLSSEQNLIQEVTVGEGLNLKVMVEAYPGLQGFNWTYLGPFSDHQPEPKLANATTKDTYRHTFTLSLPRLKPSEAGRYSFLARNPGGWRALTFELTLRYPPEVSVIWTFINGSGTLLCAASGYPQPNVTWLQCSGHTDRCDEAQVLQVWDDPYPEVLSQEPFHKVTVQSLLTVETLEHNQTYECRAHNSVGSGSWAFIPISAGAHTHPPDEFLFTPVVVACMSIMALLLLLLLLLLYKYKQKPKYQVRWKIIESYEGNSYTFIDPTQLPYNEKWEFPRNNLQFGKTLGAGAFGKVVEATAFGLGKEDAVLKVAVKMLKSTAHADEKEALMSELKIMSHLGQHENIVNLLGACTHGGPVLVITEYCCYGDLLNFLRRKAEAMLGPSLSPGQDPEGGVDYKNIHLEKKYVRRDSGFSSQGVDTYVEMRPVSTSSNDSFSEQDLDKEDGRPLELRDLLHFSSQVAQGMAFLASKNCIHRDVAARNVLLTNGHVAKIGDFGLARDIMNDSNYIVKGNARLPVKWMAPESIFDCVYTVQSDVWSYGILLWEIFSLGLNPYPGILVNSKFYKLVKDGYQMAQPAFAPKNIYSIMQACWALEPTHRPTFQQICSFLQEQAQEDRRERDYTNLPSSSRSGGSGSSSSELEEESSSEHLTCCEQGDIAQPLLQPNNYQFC
Description: Inhibition of CSF-1R kinase activity by a test compound disclosed herein was estimated by AlphaScreen (PerkinElmer). […] Reactions were incubated at 30° C. for 45 min and stopped by adding 5 μL of 50 mM EDTA. Analysis of resulting product using an AlphaScreen kit, and counted with Enspire Alpha (PerkinElmer). […] The IC50 values of quinoxaline compounds of this invention against CSF-1R kinase were determined using the GraphPad Prism 5 software.

[1] = test system: CSF-1-dependent M-NFS-60 mouse myeloid leukemia cell; test: M-NFS-60 cell proliferation assay (CellTiter-96); type: cell-based; details: Cytotoxicity, M-NFS-60 cells, 72 hours
Outline: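 CSF-1-dependent M-NFS-60 cells seeded at 2000 cells/well, settled overnight at 37 °C, 5% CO2, then exposed to increasing compound concentrations for 72 h. Viability read by CellTiter 96 AQueous One reagent (4 h) at 490 nm absorbance.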

[2] = test system: Kasumi-1 human acute myeloid leukemia cell with c-KIT N822K activating mutation; test: Kasumi-1 cell proliferation assay (CellTiter-96); type: cell-based; details: Cytotoxicity, Kasumi-1 cells, 72 hours
Outline: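 Kasumi-1 cells, seeded at 64000 cells/well and incubated overnight at 37 °C, were exposed to increasing compound concentrations for 72 h. Viability was measured by CellTiter96 AQueous One reagent (4 h) and absorbance at 490 nm.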

[3] = test system: MV4-11 human acute myeloid leukemia cell with FLT3-ITD mutation; test: MV4-11 cell proliferation assay (CellTiter-96); type: cell-based; details: Cytotoxicity, MV4-11 cells, 72 hours
Outline: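 MV4-11 cells (FLT3-ITD, FLT3-dependent growth) seeded at 6500 cells/well, incubated overnight at 37° C., 5% CO2, then exposed to increasing compound concentrations for 72 hours. Viability read by CellTiter96 AQueous One reagent (4 hours), absorbance at 490 nm.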

[4] = test system: osteoclast precursors (osteoclast differentiation); test: Osteoclast tartrate-resistant acid phosphatase assay; type: cell-based; details: 168 h, at 1 μM treatment, 7 days, RANKL and M-CSF, read-out: inhibition activity against osteoclast differentiation
Description: A serial dilution of test compound was dispensed into a 96-well black clear bottom plate. Compound was diluted by the addition of DMEM media supplemented with 10% characterized fetal bovine serum. Diluted compound was transferred to a 96-well black clear bottom plate. Three thousand osteoclast precursors (Lonza, Walkersville, Md.) were added per well in growth medium containing Receptor Activator of Nuclear Factor Kappa-beta ligand (RANKL) and M-CSF. […] At the end of the incubation period, 50 μL of supernatant from each well was transferred to a clear 96-well plate. Tartrate-resistant acid phosphatase activity in the supernatant samples was determined using an acid phosphatase assay kit (Sigma, St. Louis, Mo.). Absorbance was measured at 550 nm using a plate reader. […] The Inhibition activity against osteoclast differentiation for each compound at 1 μM treatment in duplicate was measured.

FLT3 kinase = FLT3 kinase (Homo sapiens (Human), UniProt P36888); test: FLT3 kinase assay (radiometric); type: biochemical
Chain of FLT3 kinase (P36888 27-993): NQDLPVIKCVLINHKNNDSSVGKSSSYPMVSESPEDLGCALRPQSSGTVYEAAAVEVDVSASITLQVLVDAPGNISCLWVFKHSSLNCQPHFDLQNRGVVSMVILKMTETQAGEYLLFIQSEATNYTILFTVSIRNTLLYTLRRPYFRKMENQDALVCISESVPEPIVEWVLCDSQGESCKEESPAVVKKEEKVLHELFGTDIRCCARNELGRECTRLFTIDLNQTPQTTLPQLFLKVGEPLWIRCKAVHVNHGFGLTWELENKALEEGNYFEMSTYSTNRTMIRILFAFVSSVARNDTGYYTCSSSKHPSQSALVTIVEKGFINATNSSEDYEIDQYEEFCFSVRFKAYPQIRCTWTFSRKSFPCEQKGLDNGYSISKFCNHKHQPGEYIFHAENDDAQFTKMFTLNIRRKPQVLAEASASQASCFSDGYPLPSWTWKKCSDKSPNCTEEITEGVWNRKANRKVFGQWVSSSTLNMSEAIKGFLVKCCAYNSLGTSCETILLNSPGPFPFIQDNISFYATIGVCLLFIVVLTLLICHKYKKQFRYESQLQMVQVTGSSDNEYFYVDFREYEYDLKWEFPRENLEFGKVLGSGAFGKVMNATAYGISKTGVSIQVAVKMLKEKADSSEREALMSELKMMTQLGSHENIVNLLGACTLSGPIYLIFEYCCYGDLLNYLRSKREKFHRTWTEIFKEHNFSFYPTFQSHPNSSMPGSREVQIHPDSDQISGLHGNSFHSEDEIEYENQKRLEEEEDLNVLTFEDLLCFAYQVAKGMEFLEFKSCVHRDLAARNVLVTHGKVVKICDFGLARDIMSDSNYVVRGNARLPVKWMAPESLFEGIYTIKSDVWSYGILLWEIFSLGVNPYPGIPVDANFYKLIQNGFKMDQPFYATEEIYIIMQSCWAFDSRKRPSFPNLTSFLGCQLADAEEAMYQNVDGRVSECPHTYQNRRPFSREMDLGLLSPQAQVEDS
Outline: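 Recombinant FLT3 (5 ng) phosphorylating poly(Glu4:Tyr1) (2 μg) with 10 μM ATP plus [^33P]-ATP in MOPS pH 7.0 buffer, 4% DMSO final, 60 min at 30° C. Reaction stopped with phosphoric acid, filter-captured and scintillation-counted; IC50 derived from dose-response.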

c-KIT kinase = c-KIT kinase (Homo sapiens (Human), UniProt P10721); test: c-KIT kinase assay (radiometric); type: biochemical
Chain of c-KIT kinase (P10721 26-976): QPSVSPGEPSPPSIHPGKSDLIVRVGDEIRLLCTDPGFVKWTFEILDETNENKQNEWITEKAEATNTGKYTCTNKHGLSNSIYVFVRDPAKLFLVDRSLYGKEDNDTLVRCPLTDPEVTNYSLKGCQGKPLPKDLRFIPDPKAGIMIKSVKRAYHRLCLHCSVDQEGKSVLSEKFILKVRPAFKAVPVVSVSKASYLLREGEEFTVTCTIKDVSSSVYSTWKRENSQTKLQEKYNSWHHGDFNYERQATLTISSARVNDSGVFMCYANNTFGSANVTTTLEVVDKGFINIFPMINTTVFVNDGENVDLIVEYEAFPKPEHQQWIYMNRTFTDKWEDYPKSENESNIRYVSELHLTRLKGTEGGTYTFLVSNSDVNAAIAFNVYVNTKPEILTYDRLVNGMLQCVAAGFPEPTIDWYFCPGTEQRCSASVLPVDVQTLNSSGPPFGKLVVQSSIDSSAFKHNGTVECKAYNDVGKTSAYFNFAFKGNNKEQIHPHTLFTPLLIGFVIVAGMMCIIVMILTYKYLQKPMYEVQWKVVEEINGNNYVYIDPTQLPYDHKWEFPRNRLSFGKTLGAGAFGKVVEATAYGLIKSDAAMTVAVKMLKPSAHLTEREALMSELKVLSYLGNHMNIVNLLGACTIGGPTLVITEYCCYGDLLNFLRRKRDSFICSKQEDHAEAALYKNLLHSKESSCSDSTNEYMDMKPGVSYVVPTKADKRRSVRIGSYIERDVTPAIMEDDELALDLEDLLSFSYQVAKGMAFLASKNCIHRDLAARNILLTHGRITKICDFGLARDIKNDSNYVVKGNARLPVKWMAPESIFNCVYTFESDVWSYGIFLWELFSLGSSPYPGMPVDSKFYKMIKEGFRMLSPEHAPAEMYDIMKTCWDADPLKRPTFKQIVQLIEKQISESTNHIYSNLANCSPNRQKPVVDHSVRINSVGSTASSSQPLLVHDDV
Outline: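 Recombinant c-Kit (20 ng) with 2 μg Poly-(Glu4:Tyr1) in MOPS pH 7.0 buffer with MgCl2/MnCl2, 10 μM ATP plus [^33P]-ATP, 4% DMSO final, 60 min at 30° C. Stopped with phosphoric acid, filter-captured and scintillation counted; IC50 from curve fit.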

[5] = test system: THP-1 human acute monocytic leukemia cell harboring NRAS G12D mutation; test: THP-1 cell proliferation assay (counter screen, CellTiter-96); type: cell-based; details: Cytotoxicity, THP-1 cells (counter screen), 72 hours
Outline: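 THP-1 cells, RTK-independent owing to NRAS G12D, seeded at 5000/well, incubated overnight at 37 °C/5% CO2, then exposed to increasing compound concentrations for 72 h. CellTiter96 AQueous One reagent added for 4 h; viability from absorbance at 490 nm.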

Chain of PDGFRβ kinase (P09619 33-1106): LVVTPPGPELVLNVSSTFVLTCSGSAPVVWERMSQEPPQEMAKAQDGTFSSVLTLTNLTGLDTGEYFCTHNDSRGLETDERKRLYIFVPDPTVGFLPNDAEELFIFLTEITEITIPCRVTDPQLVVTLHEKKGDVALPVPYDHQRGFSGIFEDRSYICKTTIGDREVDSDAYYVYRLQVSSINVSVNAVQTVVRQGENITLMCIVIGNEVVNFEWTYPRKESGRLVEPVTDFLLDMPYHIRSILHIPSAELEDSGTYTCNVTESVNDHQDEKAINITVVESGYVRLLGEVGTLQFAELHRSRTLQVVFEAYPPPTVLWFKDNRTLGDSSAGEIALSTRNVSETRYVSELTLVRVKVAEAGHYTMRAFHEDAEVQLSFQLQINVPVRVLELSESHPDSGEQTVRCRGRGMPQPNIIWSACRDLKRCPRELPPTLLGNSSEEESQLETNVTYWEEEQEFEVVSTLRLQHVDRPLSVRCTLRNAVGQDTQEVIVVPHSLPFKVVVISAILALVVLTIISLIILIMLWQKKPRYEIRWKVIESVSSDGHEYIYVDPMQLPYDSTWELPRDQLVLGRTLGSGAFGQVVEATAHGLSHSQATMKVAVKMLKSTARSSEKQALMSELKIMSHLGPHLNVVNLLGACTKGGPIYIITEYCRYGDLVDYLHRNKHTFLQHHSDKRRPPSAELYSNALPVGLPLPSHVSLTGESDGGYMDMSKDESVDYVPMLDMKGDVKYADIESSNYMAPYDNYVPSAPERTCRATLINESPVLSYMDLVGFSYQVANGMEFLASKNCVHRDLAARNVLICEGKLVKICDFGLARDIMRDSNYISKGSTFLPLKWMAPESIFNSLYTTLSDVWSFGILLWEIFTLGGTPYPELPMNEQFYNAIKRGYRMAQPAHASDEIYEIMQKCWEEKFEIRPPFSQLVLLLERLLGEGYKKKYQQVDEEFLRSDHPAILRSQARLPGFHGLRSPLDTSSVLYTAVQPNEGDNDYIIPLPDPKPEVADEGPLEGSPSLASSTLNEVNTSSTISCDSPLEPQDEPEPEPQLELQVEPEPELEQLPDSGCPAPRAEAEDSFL

| IC50 (PDGFRβ kinase; bound) | IC50 (CSF-1R kinase) | IC50 (FLT3 kinase; bound) | IC50 (c-KIT kinase; class symbol) | IC50 (c-KIT kinase; bound) | Compound | IC50 [1] | IC50 [2] | IC50 [3] | inhibition at 1 µM [4] | IC50 [5] | IC50 (PDGFRβ kinase; class symbol) | IC50 (FLT3 kinase; class symbol) |
| --- | --- | --- | --- | --- | --- | --- | --- | --- | --- | --- | --- | --- |
| > 1000 nM | < 100 nM | > 1000 nM | < 100 nM |  | COc1ccc(COc2ccc(Nc3ccc4ncc(N(C)C)nc4c3C#N)cc2OC)cn1 [Example 137, 3-(dimethylamino)-6-((3-methoxy-4-((6-methoxypyridin-3-yl)methoxy)phenyl)amino)quinoxaline-5-carbonitrile] | < 300 nM | 300 to 1000 nM | 1000 to 10000 nM | > 50% | > 10000 nM |  |  |
| > 1000 nM | < 100 nM | > 1000 nM | 300 to 1000 nM |  | COc1cc(Nc2ccc3ncc(C4CCOCC4)nc3c2C#N)ccc1OCc1ccc(C)nc1 [Example 114, 6-((3-methoxy-4-((6-methylpyridin-3-yl)methoxy)phenyl)amino)-3-(tetrahydro-2H-pyran-4-yl)quinoxaline-5-carbonitrile] | 1000 to 10000 nM | 1000 to 10000 nM | 1000 to 10000 nM | > 50% | > 10000 nM |  |  |
| > 1000 nM | < 100 nM | > 1000 nM | < 100 nM |  | COc1cc(Nc2ccc3ncc(N4CC(C)(OC)C4)nc3c2C#N)ccc1OCc1ccc(C)nc1 [Example 138, 3-(3-methoxy-3-methylazetidin-1-yl)-6-((3-methoxy-4-((6-methyl-pyridin-3-yl)methoxy)phenyl)amino)quinoxaline-5-carbonitrile] | < 300 nM | < 300 nM | 1000 to 10000 nM | > 50% | > 10000 nM |  |  |
| > 1000 nM | < 100 nM | > 1000 nM | < 100 nM |  | COc1cc(Nc2ccc3ncc(N4CCOCC4)nc3c2C#N)ccc1OCc1ccsc1 [Example 126, 6-((3-methoxy-4-(thiophen-3-ylmethoxy)phenyl)amino)-3-morpholinoquinoxaline-5-carbonitrile] | 300 to 1000 nM | < 300 nM | 1000 to 10000 nM | > 50% | > 10000 nM |  |  |
| > 1000 nM | < 100 nM | > 1000 nM |  | > 1000 nM | COc1ccc(COc2ccc(Nc3ccc4ncc(C(C)C)nc4c3C#N)cc2OC)cc1 [Example 109, 3-isopropyl-6-((3-methoxy-4-((4-methoxybenzyl)oxy)phenyl)amino)quinoxaline-5-carbonitrile] | 1000 to 10000 nM | 1000 to 10000 nM | > 10000 nM | > 50% | > 10000 nM |  |  |
| > 1000 nM | < 100 nM | > 1000 nM |  | > 1000 nM | COc1cc(Nc2ccc3ncc(N4CCOCC4)nc3c2C#N)ccc1OCc1ccc(F)c(F)c1 [Example 99, 6-((4-((3,4-difluorobenzyl)oxy)-3-methoxyphenyl)amino)-3-morpholinoquinoxaline-5-carbonitrile] | < 300 nM | > 10000 nM | > 10000 nM | > 50% | > 10000 nM |  |  |
| > 1000 nM | < 100 nM | > 1000 nM | 100 to 300 nM |  | COc1ccc(COc2ccc(Nc3ccc4ncc(N5CCC(N6CCOCC6)CC5)nc4c3C#N)cc2OC)cn1 [Example 102, 6-((3-methoxy-4-((6-methoxypyridin-3-yl)methoxy)phenyl)amino)-3-(4-morpholinopiperidin-1-yl)quinoxaline-5-carbonitrile] | < 300 nM | < 300 nM | > 10000 nM | > 50% | > 10000 nM |  |  |
| > 1000 nM | < 100 nM | > 1000 nM | < 100 nM |  | COc1cc(Nc2ccc3ncc(N4CCOCC4)nc3c2C#N)ccc1OCc1ccc(C2CC2)nc1 [Example 120, 6-((4-((6-cyclopropylpyridin-3-yl)methoxy)-3-methoxy-phenyl)amino)-3-morpholinoquinoxaline-5-carbonitrile] | < 300 nM | < 300 nM | > 10000 nM | > 50% | > 10000 nM |  |  |

The next lines start with the compound.

| Compound | IC50 (PDGFRβ kinase; bound) | IC50 (CSF-1R kinase) | IC50 (FLT3 kinase; bound) | IC50 (c-KIT kinase; class symbol) | IC50 (c-KIT kinase; bound) | IC50 [1] | IC50 [2] | IC50 [3] | inhibition at 1 µM [4] | IC50 [5] | IC50 (PDGFRβ kinase; class symbol) | IC50 (FLT3 kinase; class symbol) |
| --- | --- | --- | --- | --- | --- | --- | --- | --- | --- | --- | --- | --- |
| COc1ccc(COc2ccc(Oc3ccc4ncc(N5CCOCC5)nc4c3C#N)cc2OC)cc1 [Example 27, 6-(3-methoxy-4-((4-methoxybenzyl)oxy)phenoxy)-3-morpholinoquinoxaline-5-carbonitrile] | > 1000 nM | < 100 nM | > 1000 nM | 100 to 300 nM |  | < 300 nM | < 300 nM | > 10000 nM | > 50% | > 10000 nM |  |  |
| COc1ccc(COc2ccc(Nc3ccc4ncc(N5CCOCC5)nc4c3C#N)cc2)cc1 [Example 38, 6-((4-((4-methoxybenzyl)oxy)phenyl)amino)-3-morpholinoquinoxaline-5-carbonitrile] |  | < 100 nM |  | < 100 nM |  | < 300 nM | 300 to 1000 nM | < 300 nM | > 50% | > 10000 nM | 100 to 300 nM | 100 to 300 nM |
| COc1ccc(COc2ccc(Nc3ccc4ncc(N5CCC(N(C)C)CC5)nc4c3C#N)cc2OC)cn1 [Example 82, 3-(4-(dimethylamino)piperidin-1-yl)-6-((3-methoxy-4-((6-methoxy-pyridin-3-yl)methoxy)phenyl)amino)quinoxaline-5-carbonitrile] | > 1000 nM | < 100 nM | > 1000 nM | 100 to 300 nM |  | < 300 nM | < 300 nM | 1000 to 10000 nM | > 50% | 1000 to 10000 nM |  |  |
| COc1cc(Nc2ccc3ncc(N4CCOCC4)nc3c2C#N)ccc1OCc1ccc(C(F)(F)F)nc1 [Example 73, 6-((3-methoxy-4-((6-(trifluoromethyl)pyridin-3-yl)methoxy)phenyl)amino)-3-morpholinoquinoxaline-5-carbonitrile] | > 1000 nM | < 100 nM | > 1000 nM | < 100 nM |  | < 300 nM | < 300 nM | > 10000 nM | > 50% | > 10000 nM |  |  |
| COc1cc(Nc2ccc3ncc(N4CCOCC4)nc3c2C#N)ccc1OCc1ccc2c(c1)CCO2 [Example 45, 6-((4-((2,3-dihydrobenzofuran-5-yl)methoxy)-3-methoxyphenyl)amino)-3-morpholinoquinoxaline-5-carbonitrile] | > 1000 nM | < 100 nM | > 1000 nM | < 100 nM |  | < 300 nM | 300 to 1000 nM | > 10000 nM | > 50% | > 10000 nM |  |  |
| COc1ccc(COc2ccc(Nc3ccc4ncc(N5CCOCC5)nc4c3C#N)cc2OC)c(F)c1 [Example 94, 6-((4-((2-fluoro-4-methoxybenzyl)oxy)-3-methoxyphenyl)amino)-3-morpholinoquinoxaline-5-carbonitrile] | > 1000 nM | < 100 nM | > 1000 nM | < 100 nM |  | < 300 nM | 300 to 1000 nM | > 10000 nM | > 50% | > 10000 nM |  |  |
